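Results reflect a 48-hour exposure of cells in 96-well plates to compound at five concentrations. GI50 = concentration required for 50% inhibition of growth.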 Calls of active or inactive are those of the source. Rule as the data show it: active = GI50 up to about 1.1 µM and inactive = higher.
Tests used:
Experiment in all cases: NCI tumour cell line growth inhibition, 48 h
786-0 = test system: 786-0
DU-145 = test system: DU-145
HCC 2998 = test system: HCC 2998
HL-60 = test system: HL-60
HT-29 = test system: HT-29
Hs-578T = test system: Hs-578T
LOX IMVI = test system: LOX IMVI
MDA-MB-435 = test system: MDA-MB-435
Malme-3M = test system: Malme-3M
NCI-H226 = test system: NCI-H226
NCI-H460 = test system: NCI-H460
OVCAR-3 = test system: OVCAR-3
OVCAR-5 = test system: OVCAR-5
SF-268 = test system: SF-268
SF-539 = test system: SF-539
SK-MEL-5 = test system: SK-MEL-5
SNB-19 = test system: SNB-19
SNB-75 = test system: SNB-75
TK-10 = test system: TK-10

Measured: GI50

COc1c(C)c2c(c(=O)c3c(C)cccc3n2C)c2c1c(=O)c1c(C)cccc1n2C
inactive: 786-0 > 10 µM | DU-145 > 10 µM | HCC 2998 > 10 µM | HL-60 > 10 µM | HT-29 > 10 µM | Hs-578T > 10 µM | LOX IMVI > 10 µM | MDA-MB-435 > 10 µM | Malme-3M > 10 µM | NCI-H226 > 10 µM | NCI-H460 5.62 µM | OVCAR-3 > 10 µM | OVCAR-5 > 10 µM | SF-268 > 10 µM | SF-539 > 10 µM | SK-MEL-5 > 10 µM | SNB-19 > 10 µM | SNB-75 > 10 µM | TK-10 > 10 µM

COc1cccc2cc(C(=O)NC34CC5CC(CC(C5)C3)C4)c(=N)oc12
inactive: 786-0 59.8 µM | DU-145 > 100 µM | HCC 2998 > 54.2 µM | HL-60 3.13 µM | HT-29 47.1 µM | Hs-578T 34 µM | LOX IMVI > 52.8 µM | MDA-MB-435 > 82.4 µM | Malme-3M > 86.5 µM | NCI-H226 > 61 µM | NCI-H460 > 89.7 µM | OVCAR-3 24.6 µM | OVCAR-5 > 100 µM | SF-268 78.9 µM | SF-539 > 34.3 µM | SK-MEL-5 > 69.2 µM | SNB-19 73.8 µM | SNB-75 44.6 µM | TK-10 64 µM

O=C1Nc2ccccc2/C1=N/NC(=S)Nc1ccc(Cl)cc1
inactive: 786-0 22.3 µM | DU-145 > 100 µM | HCC 2998 > 100 µM | HL-60 39 µM | HT-29 41 µM | Hs-578T > 100 µM | LOX IMVI 27.7 µM | MDA-MB-435 39.8 µM | Malme-3M 9.62 µM | NCI-H226 22.2 µM | NCI-H460 15.5 µM | OVCAR-3 25.8 µM | OVCAR-5 64.6 µM | SF-268 31.6 µM | SF-539 29.2 µM | SK-MEL-5 17.2 µM | SNB-19 41.8 µM | SNB-75 33 µM | TK-10 16.1 µM

CC(=O)Nc1ccc(Nc2nc(=O)[nH]c(=O)[nH]2)cc1
inactive: 786-0 > 100 µM | DU-145 > 100 µM | HCC 2998 > 100 µM | HL-60 > 100 µM | HT-29 > 100 µM | Hs-578T > 100 µM | LOX IMVI > 100 µM | MDA-MB-435 > 100 µM | Malme-3M > 100 µM | NCI-H226 > 100 µM | NCI-H460 > 100 µM | OVCAR-3 > 100 µM | OVCAR-5 > 100 µM | SF-268 > 100 µM | SF-539 > 100 µM | SK-MEL-5 > 100 µM | SNB-19 > 100 µM | SNB-75 > 100 µM | TK-10 > 100 µM

Reference: ChEMBL document CHEMBL1201862, “PubChem BioAssay data set” (2004)
